Measured values from patent publication US20220235343A1, “NOVEL ADP-RIBOSYL CYCLASE AND INHIBITOR THEREOF” (INDUSTRIAL COOPERATION FOUNDATION CHONBUK NATIONAL …, priority 2019, published 2022).

Target: T1, new ADP-ribosyl cyclase (ADPRC) of SEQ ID NO 1 (Mus musculus, UniProt P14094)
T1 construct: FLAG (N); made in house; host or cells: HEK293 cells or MES13 cells (transient transfection)
Assay: Inhibition of NAD glycohydrolase (NADase) activity of new ADPRC
Format: biochemical
Settings: as compared to the control group; ε-NAD substrate, 37° C. 1 hour; inhibitor concentration not given; FIG. 5
Protocol: In order to investigate the ADP-ribosyl cyclase (ADPRC) activity of SEQ ID NO 1, a FLAG-ADPRC plasmid was prepared by ligating a cDNA sequence encoding ADPRC into a FLAG-CMV-2 vector and the overexpression of new ADPRC was induced by treating HEK293 cells or MES13 cells using a transfection reagent. The overexpressed new ADPRC was lysed with a lysis buffer. 45 μL of the lysed sample was treated with 5 μL of 2 mM ε-NAD (nicotinamide 1,N6-ethenoadenine dinucleotide) and incubated at 37° C. for 1 hour. Then, the enzyme-substrate reaction was stopped by treating with 50 μL of 10% trichloroacetic acid. After centrifuging for 10 minutes and adding 80 μL of the supernatant to 720 μL of 0.1 M sodium phosphate buffer, absorbance was measured at 297 nm (excitation) and 410 nm (emission) with a fluorescence spectrometer.
In order to find an inhibitor which inhibits the activation of new ADP-ribosyl cyclase (ADPRC) of SEQ ID NO 1, 5 μL of each of 4,4′-dihydroxyazobenzene (4-DHAB, TCI (Japan)), 2,2′-dihydroxyazobenzene (2-DAB, Sigma-Aldrich (USA)), 2-(3,4-dihydroxyphenyl)-3,5,7-trihydroxychromen-4-one (Quercetin, Sigma-Aldrich (USA)) and San4825 (synthesized by Kannt A et al. [Kannt A, Sicka K, Kroll K, Kadereit D, Gogelein H. Naunyn. Schmiedebergs. Arch. Pharmacol. 385: 717-727, 2012], China) and 2-(1,3-benzoxazol-2-ylamino)-1-methylquinazoline-4(1H)-one (2-BMQ) and 1,4-dicaffeoylquinic acid (1,4-DCQA, Biopurify (China), hereinafter DCQA), which were newly found through screening, was reacted with 40 μL of new ADPRC in iced water for 15 minutes. Then, reaction was conducted at 37° C. for 1 hour after treating with 5 μL of 2 mM ε-NAD (nicotinamide 1,N6-ethenoadenine dinucleotide). Then, the enzyme-substrate reaction was stopped by treating with 50 μL of 10% trichloroacetic acid. After centrifuging for 10 minutes and adding 80 μL of the supernatant to 720 μL of 0.1 M sodium phosphate buffer, absorbance was measured at 297 nm (excitation) and 410 nm (emission) using a fluorescence spectrometer.

| NAD glycohydrolase (NADase) activity inhibited [%] | SMILES |
| --- | --- |
| 36.49 | Cn1c(Nc2nc3ccccc3o2)nc(=O)c2ccccc21 [2-BMQ, 2-(1,3-benzoxazol-2-ylamino)-1-methylquinazoline-4(1H)-one] |
| 42.40 | Oc1ccc(N=Nc2ccc(O)cc2)cc1 [4-DHAB, 4,4′-dihydroxyazobenzene] |
